Drawing on patent US9649309B2 (priority 2014, dated 2017), this text covers IC50 for 55 compounds.

In test [1] the target is Axl (Homo sapiens (Human), UniProt P30530). The settings on record: read-out: IC50 Axl.
The target in test [2] is Tyro3 (Homo sapiens (Human), UniProt Q06418). To be noted: read-out: IC50 Tyro3.
Chain of Tyro3 (Q06418 41-890 limits assumed): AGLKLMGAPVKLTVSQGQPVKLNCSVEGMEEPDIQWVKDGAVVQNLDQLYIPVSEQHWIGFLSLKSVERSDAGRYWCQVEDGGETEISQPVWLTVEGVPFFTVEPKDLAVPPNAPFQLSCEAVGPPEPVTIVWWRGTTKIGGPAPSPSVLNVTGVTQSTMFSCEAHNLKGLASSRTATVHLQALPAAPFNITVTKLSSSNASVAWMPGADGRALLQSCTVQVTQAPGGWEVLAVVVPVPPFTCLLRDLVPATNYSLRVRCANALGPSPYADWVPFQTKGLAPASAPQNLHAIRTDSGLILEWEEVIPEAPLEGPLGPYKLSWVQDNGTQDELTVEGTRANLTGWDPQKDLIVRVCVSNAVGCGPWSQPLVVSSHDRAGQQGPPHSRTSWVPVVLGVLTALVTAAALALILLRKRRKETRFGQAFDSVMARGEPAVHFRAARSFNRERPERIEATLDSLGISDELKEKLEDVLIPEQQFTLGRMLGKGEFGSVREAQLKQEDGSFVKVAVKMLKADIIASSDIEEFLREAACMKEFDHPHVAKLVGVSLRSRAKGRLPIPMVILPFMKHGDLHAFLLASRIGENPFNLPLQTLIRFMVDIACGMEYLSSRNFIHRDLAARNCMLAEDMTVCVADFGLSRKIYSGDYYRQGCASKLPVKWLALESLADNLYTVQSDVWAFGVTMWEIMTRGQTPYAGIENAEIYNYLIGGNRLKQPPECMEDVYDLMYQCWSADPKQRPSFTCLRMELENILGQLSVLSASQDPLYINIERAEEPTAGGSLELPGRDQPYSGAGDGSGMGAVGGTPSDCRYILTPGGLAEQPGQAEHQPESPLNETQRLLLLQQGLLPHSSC

Chain of Axl (P30530 26-894 limits assumed): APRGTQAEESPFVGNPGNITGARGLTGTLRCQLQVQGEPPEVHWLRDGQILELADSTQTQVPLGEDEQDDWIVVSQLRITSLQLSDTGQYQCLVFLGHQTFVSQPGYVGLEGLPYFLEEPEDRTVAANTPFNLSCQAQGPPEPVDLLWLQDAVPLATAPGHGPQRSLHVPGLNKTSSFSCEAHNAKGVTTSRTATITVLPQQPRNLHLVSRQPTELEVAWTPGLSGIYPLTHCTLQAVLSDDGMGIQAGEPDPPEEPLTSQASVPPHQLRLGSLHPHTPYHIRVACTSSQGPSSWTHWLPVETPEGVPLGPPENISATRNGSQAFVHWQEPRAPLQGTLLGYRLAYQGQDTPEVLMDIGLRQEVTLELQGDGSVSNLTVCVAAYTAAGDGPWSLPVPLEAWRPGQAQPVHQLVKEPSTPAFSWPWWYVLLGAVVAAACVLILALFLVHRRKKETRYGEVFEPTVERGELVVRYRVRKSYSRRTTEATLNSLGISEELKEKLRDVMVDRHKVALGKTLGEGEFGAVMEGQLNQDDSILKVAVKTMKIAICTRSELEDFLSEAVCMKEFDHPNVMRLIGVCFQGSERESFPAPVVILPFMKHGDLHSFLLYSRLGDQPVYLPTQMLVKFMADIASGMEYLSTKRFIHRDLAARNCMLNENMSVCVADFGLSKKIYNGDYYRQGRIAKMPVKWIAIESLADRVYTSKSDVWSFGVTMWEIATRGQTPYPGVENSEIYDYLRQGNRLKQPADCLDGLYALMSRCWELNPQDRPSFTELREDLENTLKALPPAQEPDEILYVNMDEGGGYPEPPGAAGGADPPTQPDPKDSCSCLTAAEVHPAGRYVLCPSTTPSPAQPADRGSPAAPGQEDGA

Regarding `CCCCNc1ncc(-c2ccc(CN3C[C@@H]4C[C@H]3CN4)cn2)c(NC2CCC(O)CC2)n1` (stereo partly drawn) [UNC4112A], the results for the IC50 in test [1] and in test [2] were 32 nM and 19 nM, respectively. The like results for `CCCCNc1ncc(C(=O)NCc2ccc(-c3ccc(C#N)cc3)nc2)c(N[C@H]2CC[C@H](O)CC2)n1` [UNC4239A] were, in that order, 977 nM and 305 nM. The like results for `CCCCNc1ncc(-c2cc(Nc3cccc([N+](=O)[O-])c3)ncn2)c(N[C@H]2CC[C@H](O)CC2)n1` [UNC4322A] were, in that order, 30000 nM and 889 nM. Take `CCCCNc1ncc(-c2ccc(CN3CC(C)NC(C)C3)cn2)c(NC2CCC(O)CC2)n1` (stereo not drawn) [UNC4105A]: in test [2], the IC50 was found to be 27 nM.

Consider `CCCCNc1ncc(-c2cc(SC)nc(C)n2)c(N[C@H]2CC[C@H](O)CC2)n1` [UNC3130A], for which the half-inhibitory concentration (IC50) in test [1] is 1090 nM; in test [2], 384 nM. With `CCCCNc1ncc(-c2ccccn2)c(Nc2ccc(O)cc2)n1` [UNC2998A], the concentration for half-maximal inhibition (IC50) was determined as 30000 nM in test [1] and 363 nM in test [2]. The like results for `CCCCNc1ncc(-c2nc(C(F)(F)F)cs2)c(N[C@H]2CC[C@H](O)CC2)n1` [UNC3149A] were, in that order, 30000 nM and 30000 nM. With `CCCCNc1ncc(C(=O)NC2CCN(CCc3ccccc3)CC2)c(N[C@H]2CC[C@H](O)CC2)n1` [UNC2800A], the IC50 worked out at 314 nM in test [1] and 130 nM in test [2].

For the compound `CCCCNc1ncc(C(=O)Nc2ccc(CN3CCN(C)CC3)cc2)c(N[C@H]2CC[C@H](O)CC2)n1` [UNC2764A], in test [1], the IC50 was 177 nM. In the case of `CCCCNc1ncc(-c2ccc(C3(N4CCOCC4)CCC3)cn2)c(NC2CCC(O)CC2)n1` (stereo not drawn) [UNC3666A], the IC50 in test [1] amounted to 52 nM; in test [2], 11 nM. As for `CCCCNc1ncc(C(=O)NCc2cncs2)c(N[C@H]2CC[C@H](O)CC2)n1` [UNC4344A], the half-maximal inhibitory concentration (IC50) came out at 196 nM in test [1] and 276 nM in test [2].

With `CCCCNc1ncc(-c2ccc(NC3CC3)nn2)c(N[C@H]2CC[C@H](O)CC2)n1` [UNC3069A], the concentration for half-maximal inhibition (IC50) in test [1] was 419 nM; in test [2], 176 nM. The like results for `CCCCNc1ncc(C(=O)Nc2ccc(CCN3CCN(C)CC3)cc2)c(N[C@H]2CC[C@H](O)CC2)n1` [UNC2806A] were, in that order, 266 nM and 98 nM. Turning to `CCCCNc1ncc(C(=O)NCC(=O)N2CCCCC2)c(N[C@H]2CC[C@H](O)CC2)n1` [UNC2604A], the figures for the concentration for half-maximal inhibition (IC50) in test [1] and in test [2] were 1200 nM and 412 nM, respectively. `CCCCNc1ncc(-c2ccc(C(=O)O)nn2)c(N[C@H]2CC[C@H](O)CC2)n1` [UNC3042A]: the half-maximal inhibitory concentration (IC50) came out at 558 nM in test [1] and 192 nM in test [2]. For `CCCCNc1ncc(-c2ccccn2)c(NCCCCCO)n1` [UNC2964A] the same measures were 5270 nM and 2770 nM. As to `CCCCNc1ncc(-c2ccc(C3(N4CCOCC4)CC3)cn2)c(NC2CCC(O)CC2)n1` (stereo not drawn) [UNC3664A], the half-inhibitory concentration (IC50) was 93 nM in test [1] and 18 nM in test [2]. For `CCCCNc1ncc(-c2ccc(CC3CCNCC3)cn2)c(N[C@H]2CC[C@H](O)CC2)n1` [UNC4335A, trans-4-((2-(butylamino)-5-(5-(piperidin-4-ylmethyl)pyridin-2-yl)pyrimidin-4-yl)amino)cyclohexan-1-ol] the same measures were 137 nM and 56 nM. For `CCCCNc1ncc(C(=O)NCC2CCN(C(C)=O)CC2)c(N[C@H]2CC[C@H](O)CC2)n1` [UNC4288A] the same measures were 1050 nM and 262 nM.

Regarding `CCCCNc1ncc(-c2cc(NC(=O)c3ccc(F)cc3)ncn2)c(N[C@H]2CC[C@H](O)CC2)n1` [UNC3182A], the 50% inhibitory concentration (IC50) in test [1] and in test [2] was 30000 nM in each case. Consider `CCCCNc1ncc(-c2cc(Nc3ccccc3OC)ncn2)c(N[C@H]2CC[C@H](O)CC2)n1` [UNC4272A], for which the IC50 in test [1] was 12300 nM; in test [2] it was 194 nM. With `CCCCNc1ncc(-c2ncc(C)s2)c(N[C@H]2CC[C@H](O)CC2)n1` [UNC3140A], the figures for the half-maximal inhibitory concentration (IC50) in test [1] and in test [2] were 395 nM and 322 nM, respectively. Consider `CCCCNc1ncc(-c2ccc(CC3CCN(C(C)C)CC3)cn2)c(N[C@H]2CC[C@H](O)CC2)n1` [UNC4339A, trans-4-((2-(butylamino)-5-(5-((1-isopropylpiperidin-4-yl)methyl)pyridin-2-yl)pyrimidin-4-yl)amino)cyclohexan-1-ol], for which the results for the IC50 in test [1] and in test [2] were 39 nM and 22 nM, respectively. The like results for `CCCCNc1ncc(C(=O)NC2CCN(CC3CCCCC3)CC2)c(N[C@H]2CC[C@H](O)CC2)n1` [UNC2877A] were, in that order, 245 nM and 230 nM. For `CCCCNc1ncc(-c2ccc(CNC3CC4CCC(C3)N4C)cn2)c(N[C@H]2CC[C@H](O)CC2)n1` (stereo partly drawn) [UNC4163A], the results for the IC50 in test [1] and in test [2] were 20 nM and 8.7 nM, respectively. On to `CCCCNc1ncc(C(=O)NCc2ccon2)c(N[C@H]2CC[C@H](O)CC2)n1` [UNC4290A], for which the concentration for half-maximal inhibition (IC50) in test [2] was determined as 375 nM. Consider `CCCCNc1ncc(C(=O)NC2CCN(Cc3cccnc3)CC2)c(N[C@H]2CC[C@H](O)CC2)n1` [UNC2802A], for which the results for the IC50 in test [1] and in test [2] were 408 nM and 123 nM, respectively. For `CCCCNc1ncc(C(=O)NCc2ccc(-c3ccccc3OC)nc2)c(N[C@H]2CC[C@H](O)CC2)n1` [UNC4255A] the same measures were 336 nM and 156 nM. As to `CCCCNc1ncc(-c2ccc(CNC3CC4CCC(C3)N4C)cn2)c(N[C@H]2CC[C@H](O)CC2)n1` (stereo partly drawn) [UNC4165A], the IC50 in test [1] amounted to 18 nM; in test [2], 8 nM. The like results for `CCCCNc1ncc(-c2ccc(NC(=O)C3CCC3)cn2)c(NC2CCC(O)CC2)n1` (stereo not drawn) [UNC2790A] were, in that order, 835 nM and 338 nM. The like results for `CCCCNc1ncc(C(=O)NCc2cccs2)c(N[C@H]2CC[C@H](O)CC2)n1` [UNC2762A] were, in that order, 220 nM and 148 nM. For `CCCCNc1ncc(-c2ccc(C3=CCC(CN(C)C)CC3)cn2)c(N[C@H]2CC[C@H](O)CC2)n1` (stereo partly drawn) [UNC4387A], the IC50 in test [1] amounted to 320 nM; in test [2], 488 nM. The like results for `CCCCNc1ncc(-c2cncc(N3CCOCC3)n2)c(N[C@H]2CC[C@H](O)CC2)n1` [UNC3138A] were, in that order, 1250 nM and 935 nM. Take `CCCCNc1ncc(C(=O)NCc2ccc(-n3cccc3)cc2)c(N[C@H]2CC[C@H](O)CC2)n1` [UNC2880A]: the IC50 came to 812 nM in test [1] and 559 nM in test [2]. For `CCCCNc1ncc(-c2nc(CO)cs2)c(N[C@H]2CC[C@H](O)CC2)n1` [UNC3135A] the same measures were 304 nM and 165 nM. The like results for `CCCCNc1ncc(-c2ccc(NC(=O)C3CC3)cn2)c(NC2CCC(O)CC2)n1` (stereo not drawn) [UNC2711A] were, in that order, 644 nM and 265 nM. Take `CCCCNc1ncc(-c2cc(Nc3cccc(C(C)C)c3)ncn2)c(N[C@H]2CC[C@H](O)CC2)n1` [UNC4323A]: the IC50 in test [1] stood at 30000 nM; in test [2] it was 619 nM.

As for `CCCCNc1ncc(-c2cc(NC3CCCCCC3)ncn2)c(N[C@H]2CC[C@H](O)CC2)n1` [UNC4261A], the IC50 in test [1] worked out at 579 nM; in test [2], 380 nM.

On to `CCCCNc1ncc(C(=O)NCc2ccc(-c3ccc4ccccc4c3)nc2)c(N[C@H]2CC[C@H](O)CC2)n1` [UNC4235A], for which the 50% inhibitory concentration (IC50) was 1800 nM in test [1] and 1270 nM in test [2].

As to `CCCCNc1ncc(C(=O)NCc2ccc(-c3ccccc3)nc2)c(N[C@H]2CC[C@H](O)CC2)n1` [UNC4234A], the results for the IC50 in test [1] and in test [2] were 470 nM and 195 nM, respectively. The like results for `CCCCNc1ncc(-c2ccc(CN3CCN[C@H](C)C3)cn2)c(NC2CCC(O)CC2)n1` (stereo partly drawn) [UNC4113A] were, in that order, 55 nM and 18 nM. For the compound `CCCCNc1ncc(-c2ccc(CCN3CCCN(C)CC3)cn2)c(N[C@H]2CC[C@H](O)CC2)n1` [UNC4279A], the IC50 amounted to 67 nM in test [1] and 42 nM in test [2]. In the case of `CCCCNc1ncc(C(=O)NCc2ccc(Cn3ccnc3)cc2)c(N[C@H]2CC[C@H](O)CC2)n1` [UNC3144A], the IC50 in test [1] was determined as 487 nM; in test [2], 360 nM. As for `CCCCNc1ncc(C(=O)NCc2ccc(-n3ccnc3C)cc2)c(N[C@H]2CC[C@H](O)CC2)n1` [UNC3004A], the half-maximal inhibitory concentration (IC50) in test [1] came out at 822 nM; in test [2], 272 nM. For `CCCCNc1ncc(-c2cncc(N3CCCC3)n2)c(N[C@H]2CC[C@H](O)CC2)n1` [UNC3115A] the same measures were 642 nM and 415 nM. For `CCCCNc1ncc(-c2ccc(NC(=O)c3ccccc3)cn2)c(NC2CCC(O)CC2)n1` (stereo not drawn) [UNC2713A], the results for the half-maximal inhibitory concentration (IC50) in test [1] and in test [2] were 522 nM and 325 nM, respectively. The like results for `CCCCNc1ncc(C(=O)NCc2cncnc2)c(N[C@H]2CC[C@H](O)CC2)n1` [UNC4307A] were, in that order, 471 nM and 217 nM. As to `CCCCNc1ncc(-c2nccs2)c(N[C@H]2CC[C@H](O)CC2)n1` [UNC3047A], the IC50 in test [1] stood at 597 nM; in test [2], 157 nM. For `CCCCNc1ncc(-c2ccc(CN3C4CCCC3CC4)cn2)c(N[C@H]2CC[C@H](O)CC2)n1` [UNC4169A], the concentration for half-maximal inhibition (IC50) in test [1] came out at 9.6 nM; in test [2] it was 3.9 nM. As for `CCCCNc1ncc(-c2ccc(-c3cccc(C(=O)O)c3)nn2)c(N[C@H]2CC[C@H](O)CC2)n1` [UNC3141A], the IC50 in test [1] is 30000 nM. Turning to `CCCCNc1ncc(-c2ccc(CC3CCNC3)cn2)c(N[C@H]2CC[C@H](O)CC2)n1` (stereo partly drawn) [UNC4386A, trans-4-((2-(butylamino)-5-(5-(pyrrolidin-3-ylmethyl)pyridin-2-yl)pyrimidin-4-yl)amino)cyclohexan-1-ol], the IC50 in test [1] and in test [2] was 53 nM throughout. Regarding `CCCCNc1ncc(C(=O)NCc2ccc(-c3c(C)noc3C)nc2)c(N[C@H]2CC[C@H](O)CC2)n1` [UNC4260A], the IC50 in test [1] was 602 nM; in test [2] it was 256 nM. The like results for `CCCCNc1ncc(C(=O)NCc2ccc(N3CCCC3)cc2)c(N[C@H]2CC[C@H](O)CC2)n1` [UNC2886A] were, in that order, 325 nM and 183 nM. As for `CCCCNc1ncc(-c2cc(NCC)ncn2)c(N[C@H]2CC[C@H](O)CC2)n1` [UNC3113A], the IC50 in test [1] is 255 nM; in test [2] it was 77 nM. For `CCCCNc1ncc(-c2ccc(CN3CCNCC3(C)C)cn2)c(NC2CCC(O)CC2)n1` (stereo not drawn) [UNC4110A], in test [2], the IC50 turned out to be 19 nM.
